According to patent publication US10124012B2, “Method for treatment of hyperglycemia and hyperlipidemia” (priority 2016, dated 2018):

Experiments:
Type in all cases: in vivo, C57BL/6J mice
G6Pase = test: Liver mRNA by semi-quantitative RT-PCR: G6Pase; conditions: HFD-fed mice, oral gavage once daily 4 weeks, AnK 10, 20, 40, Feno 250, Metf 300 mg/kg/day, vs HF group
Description: (§1) The 4-week old male C57BL/6J mice (total amount n=63) were obtained from the National Laboratory Animal Center (Taipei, Taiwan). After acclimatization for one week, all of the mice were randomly assigned into a control (CON) group and a high-fat diet (HFD) group. […] After HFD feeding for 8 weeks, the HFD group was randomly subdivided into six groups (n=9 per group) receiving different treatments and fed on HFD. […] The HF+AnK1, HF+AnK2, and HF+AnK3 groups are collectively termed AnK-treated HFD groups in the following examples. The CON mice were administered vehicle. All treatments were administered via oral gavage once daily. After administration for 4 weeks, all mice were fasted 12 hours, and blood was collected from the retro-orbital sinus under ether anesthesia. […]
(§2) Total RNA from liver tissue of mice was isolated with a Trizol Reagent (Molecular Research Center, Inc., Cincinnati, Ohio, USA) according to the manufacturer's instructions. The integrity of the extracted total RNA was examined by 2% agarose gel electrophoresis, and the RNA concentration was determined by the ultraviolet (UV) light absorbency at 260 nm and 280 nm (Spectrophotometer U-2800A, Hitachi). […]
(§3) Levels of mRNA of target genes were quantified by semi-quantitative reverse transcription polymerase chain reaction (RT-PCR). […] PCR products were analyzed by 2% agarose gel and stained with ethidium bromide.

[1] = system: high-fat diet-fed C57BL/6J mouse; test: Blood glucose levels and biochemical parameters in HFD-fed mice; conditions: for blood glucose levels: fasting, week 12, oral gavage once daily 4 weeks; for blood glucose levels / blood adiponectin levels / circulating free fatty acid (FFA) levels / circulating total cholesterol (TC) levels / circulating triglycerides (TG) levels / levels of blood insulin / levels of blood leptin: AnK 10, 20, 40, Feno 250, Metf 300 mg/kg/day; for blood adiponectin levels / circulating free fatty acid (FFA) levels / circulating total cholesterol (TC) levels / circulating triglycerides (TG) levels / levels of blood insulin / levels of blood leptin: oral gavage once daily 4 weeks
Protocol: Animal studies were performed and approved under the guidelines of the Institutional Animal Care and Use Committee in Taiwan (12 Mar. 2015). […] After acclimatization for one week, all of the mice were randomly assigned into a control (CON) group and a high-fat diet (HFD) group. For the following 12 weeks, the CON group (n=9) received a control diet or a low-fat diet (Diet 12450B, Research Diets, Inc., New Brunswick, N.J., USA), while the HFD group (n=54) received a high-fat diet (Diet 12451, Research Diets, New Brunswick, N.J., USA). […] After HFD feeding for 8 weeks, the HFD group was randomly subdivided into six groups (n=9 per group) receiving different treatments and fed on HFD. […] The HF+AnK1, HF+AnK2, and HF+AnK3 groups are collectively termed AnK-treated HFD groups in the following examples. The CON mice were administered vehicle. All treatments were administered via oral gavage once daily. After administration for 4 weeks, all mice were fasted 12 hours, and blood was collected from the retro-orbital sinus under ether anesthesia. At the end of the experiment, the mice were sacrificed via carbon dioxide inhalation. Liver, adipose tissue, and skeletal muscle were collected and immediately stored at −80° C. for target gene analysis. A portion of the blood samples obtained from the retro-orbital sinus of fasted mice were immediately used to measure blood glucose levels using Sidekick glucose analyzer (YSI 1500, YSI Incorporated, Yellow Springs, USA) according to the glucose oxidase method. Heparin (30 units/mL, Sigma) was added into other portions of the blood samples. Plasma samples for the following analysis were prepared from these blood samples via centrifugation at 1600 g for 15 minutes at 4° C., followed by plasma separation within 30 minutes. Blood levels of triglycerides (TG), total cholesterol (TC), and free fatty acids (FFA) were determined using commercial assay kits in accordance with manufacturer's directions (Triglycerides-E test, Cholesterol-E test and FFA-C test, Wako Pure Chemical, Osaka, Japan). Blood levels of insulin, leptin, and adiponectin were measured by enzyme-linked immunosorbent assay (mouse insulin ELISA kit, Mercodia, Uppsala, Sweden; mouse leptin ELISA kit, Morinaga, Yokohama, Japan; mouse adiponectin ELISA kit, Crystal Chem International, Downers Grove, Ill., USA).

[2] = system: high-fat diet-fed C57BL/6J mouse; test: Body weight, tissue weights and food intake in HFD-fed mice; conditions: for Absolute tissue weight Visceral fat: sum of EWAT and RWAT
Description: The 4-week old male C57BL/6J mice (total amount n=63) were obtained from the National Laboratory Animal Center (Taipei, Taiwan). After acclimatization for one week, all of the mice were randomly assigned into a control (CON) group and a high-fat diet (HFD) group. […] After HFD feeding for 8 weeks, the HFD group was randomly subdivided into six groups (n=9 per group) receiving different treatments and fed on HFD. […] The HF+AnK1, HF+AnK2, and HF+AnK3 groups are collectively termed AnK-treated HFD groups in the following examples. The CON mice were administered vehicle. All treatments were administered via oral gavage once daily. After administration for 4 weeks, all mice were fasted 12 hours, and blood was collected from the retro-orbital sinus under ether anesthesia. At the end of the experiment, the mice were sacrificed via carbon dioxide inhalation. Liver, adipose tissue, and skeletal muscle were collected and immediately stored at −80° C. for target gene analysis.
The metabolic parameters, including body weight, weight gain, and food intake, were performed as the following. Body weight was daily measured at the same time throughout the study. Body weight gain is considered as the weight difference between two consecutive days. The amount of pellet food was weighted, followed by weighting the amount of remaining food after 24 hours. The difference between the two weights is defined as daily food intake.

SREBP2 = test: Liver mRNA by semi-quantitative RT-PCR: SREBP2; conditions: HFD-fed mice, oral gavage once daily 4 weeks, AnK 10, 20, 40, Feno 250, Metf 300 mg/kg/day, vs HF group
Description: as §1, §2, §3

[3] = HF + Metf: metformin 300 mg/kg/day oral gavage 4 weeks
[4] = HF + AnK1: AnK 10 mg/kg/day oral gavage 4 weeks
[5] = HF + AnK2: AnK 20 mg/kg/day oral gavage 4 weeks
[6] = HF + AnK3: AnK 40 mg/kg/day oral gavage 4 weeks

SMILES: CN(C)C(=N)N=C(N)N [Metf, metformin, reference compound]
- mRNA levels of G6Pase (G6Pase): significantly decreased
- blood glucose levels ([1]; vs HF group): significantly reduced
- blood adiponectin levels ([1]; vs HF group): markedly enhanced
- circulating free fatty acid (FFA) levels ([1]; vs HF group): decreased
- circulating total cholesterol (TC) levels ([1]; vs HF group): decreased
- circulating triglycerides (TG) levels ([1]; vs HF group): decreased
- levels of blood insulin ([1]; vs HF group): effectively reduced
- levels of blood leptin ([1]; vs HF group): effectively reduced
- Absolute tissue weight BAT [2, 3]: 0.220 ± 0.025 g
- Absolute tissue weight EWAT [2, 3]: 0.813 ± 0.064 g
- Absolute tissue weight Liver [2, 3]: 0.908 ± 0.031 g
- Absolute tissue weight MWAT [2, 3]: 0.270 ± 0.018 g
- Absolute tissue weight RWAT [2, 3]: 0.298 ± 0.027 g
- Absolute tissue weight Skeletal muscle [2, 3]: 0.380 ± 0.025 g
- Absolute tissue weight Spleen [2, 3]: 0.093 ± 0.006 g
- Final body weight [2, 3]: 27.86 ± 0.72 g
- Food intake [2, 3]: 1.89 ± 0.04 g/day/mouse
- Weight gain [2, 3]: 0.92 ± 0.08 g
- Absolute tissue weight Visceral fat [2, 3]: 1.111 ± 0.077 g
- mRNA levels of SREBP2 (SREBP2): significantly decreased

SMILES: C=C(CC[C@@H](C)[C@H]1CC[C@H]2C3=C(C(=O)C[C@]12C)[C@@]1(C)CC[C@@H](O)[C@](C)(O)[C@@H]1C[C@@H]3O)C(C)C(=O)O (stereo partly drawn) [AnK, 3α,4β,7β-trihydroxy-4α-methylergosta-8,24(28)-dien-11-on-25S-26-oic acid]
- mRNA levels of G6Pase (G6Pase): significantly decreased
- glucose-lowering effect compared with metformin ([1]; AnK 40 mg/kg body weight/day vs metformin 300 mg/kg/day): comparable to that of metformin
- lowering of blood glucose levels ([1]; AnK at 10, 20, and 40 mg/kg body weight/day, vs HF group): 26.8-36.0%
- decrease of circulating TG ([1]; AnK treatment (10, 20, 40 mg/kg/day), vs HF group): 28.5-32.8%
- TG-lowering effect compared with fenofibrate ([1]; AnK treatment vs fenofibrate 250 mg/kg/day): comparable to the TG-lowering effect of fenofibrate
- blood glucose levels ([1]; vs HF group): significantly reduced
- blood adiponectin levels ([1]; vs HF group): markedly enhanced
- circulating free fatty acid (FFA) levels ([1]; vs HF group): decreased
- circulating total cholesterol (TC) levels ([1]; vs HF group): decreased
- circulating triglycerides (TG) levels ([1]; vs HF group): decreased
- levels of blood insulin ([1]; vs HF group): effectively reduced
- levels of blood leptin ([1]; vs HF group): effectively reduced
- Absolute tissue weight BAT [2, 4]: 0.178 ± 0.007 g
- Absolute tissue weight EWAT [2, 4]: 0.867 ± 0.065 g
- Absolute tissue weight Liver [2, 4]: 0.946 ± 0.030 g
- Absolute tissue weight MWAT [2, 4]: 0.349 ± 0.020 g
- Absolute tissue weight RWAT [2, 4]: 0.323 ± 0.039 g
- Absolute tissue weight Skeletal muscle [2, 4]: 0.395 ± 0.036 g
- Absolute tissue weight Spleen [2, 4]: 0.090 ± 0.003 g
- Final body weight [2, 4]: 28.30 ± 0.61 g
- Food intake [2, 4]: 1.95 ± 0.05 g/day/mouse
- Weight gain [2, 4]: 1.39 ± 0.81 g
- Absolute tissue weight BAT [2, 5]: 0.172 ± 0.010 g
- Absolute tissue weight EWAT [2, 5]: 0.841 ± 0.062 g
- Absolute tissue weight Liver [2, 5]: 0.888 ± 0.019 g
- Absolute tissue weight MWAT [2, 5]: 0.340 ± 0.013 g
- Absolute tissue weight RWAT [2, 5]: 0.339 ± 0.031 g
- Absolute tissue weight Skeletal muscle [2, 5]: 0.364 ± 0.022 g
- Absolute tissue weight Spleen [2, 5]: 0.085 ± 0.003 g
- Final body weight [2, 5]: 27.55 ± 0.72 g
- Food intake [2, 5]: 1.92 ± 0.07 g/day/mouse
- Weight gain [2, 5]: 0.70 ± 0.86 g
- Absolute tissue weight BAT [2, 6]: 0.175 ± 0.008 g
- Absolute tissue weight EWAT [2, 6]: 0.809 ± 0.058 g
- Absolute tissue weight Liver [2, 6]: 0.883 ± 0.018 g
- Absolute tissue weight MWAT [2, 6]: 0.332 ± 0.025 g
- Absolute tissue weight RWAT [2, 6]: 0.306 ± 0.040 g
- Absolute tissue weight Skeletal muscle [2, 6]: 0.364 ± 0.028 g
- Absolute tissue weight Spleen [2, 6]: 0.104 ± 0.007 g
- Final body weight [2, 6]: 27.48 ± 0.46 g
- Food intake [2, 6]: 1.98 ± 0.04 g/day/mouse
- Weight gain [2, 6]: 0.58 ± 0.35 g
- Absolute tissue weight Visceral fat [2, 4]: 1.190 ± 0.093 g
- Absolute tissue weight Visceral fat [2, 5]: 1.180 ± 0.106 g
- Absolute tissue weight Visceral fat [2, 6]: 1.154 ± 0.096 g
- mRNA levels of SREBP2 (SREBP2): significantly decreased
